Patent publication US20190269730A1, “REGULATABLE CELL LINES AND METHODS OF USE THEREOF” (Auxolytic Ltd, priority 2016, published 2019)

Legend:
[1] = system: 5-FOA selected UMPS targeted T cells; assay: Uracil auxotrophy growth assay of 5-FOA selected T cells (cell counts at day 8); assay type: cell-based, human
Description: (§1) Cells were cryopreserved in Bambanker medium. After thawing cells were cultured at 37° C., 5% CO2 in X-Vivo 15 (Lonza) supplemented with or without 5% human serum (Sigma-Aldrich) and 100 IU/ml human recombinant IL-2 (Peprotech) and 10 ng/ml human recombinant IL-7 (BD Biosciences). UMP or Uridine were added at 250 ug/ml. 5-FOA was added at 100 ug/ml to 1 mg/ml. During culture, medium was refreshed every 2 days.
(§2) Genomic DNA was harvested using QuickExtract (Epicentre). Cells were counted on an automated cell counter using Trypan blue staining or on a Cytoflex (Beckman Coulter) flow cytometer using CountBright beads (ThermoFisher) as a reference. Data was analyzed using Excel (Microsoft) and FlowJo (Tree Star).
To assay whether or not the cells selected for by 5-FOA treatment are uracil auxotrophs, mock or UMPS targeted T cells were exposed to 5-FOA as in Example 4. Following 4 days of 5-FOA selection, the population of cells was split into a uracil containing media (either UMP, uridine or both) and a uracil deficient media. A growth assay was subsequently performed by cell counting after following 4 days incubation in test media (day 8) (FIG. 4A).

[2] = system: UMPS edited human T cells; assay: Growth of heterogeneous UMPS edited T cell population with/without exogenous uracil source (cell counts); assay type: cell-based; conditions: UMP or Uridine added at 250 ug/ml; no selection step; compared with mock edited and CCR5 targeted controls
Description: Cells were cryopreserved in Bambanker medium. After thawing cells were cultured at 37° C., 5% CO2 in X-Vivo 15 (Lonza) supplemented with or without 5% human serum (Sigma-Aldrich) and 100 IU/ml human recombinant IL-2 (Peprotech) and 10 ng/ml human recombinant IL-7 (BD Biosciences). UMP or Uridine were added at 250 ug/ml. 5-FOA was added at 100 ug/ml to 1 mg/ml. During culture, medium was refreshed every 2 days. T cells were activated using immobilized Anti-CD3 (clone OKT3, Tonbo Biosciences) and soluble anti-CD28 (clone CD28.2, Tonbo Biosciences) for 3 days before electroporation. For the experiments in FIGS. 1, 3 and 4, 1.4 million activated T cells were electroporated. For the experiments in FIG. 2, 30,000 activated T cells were electroporated per condition. These cells were resuspended in electroporation solution, mixed with the pre-complexed RNP and electroporated using a 4D-Nucleofector (Lonza) using program EO-115. The RNP consisted of Cas9 protein (Alt-R® S. pyogenes, IDT) at 300 ug/ml and sgRNA using a sgRNA:Cas9 molar ratio of 2.5. Genomic DNA was harvested using QuickExtract (Epicentre). Cells were counted on an automated cell counter using Trypan blue staining or on a Cytoflex (Beckman Coulter) flow cytometer using CountBright beads (ThermoFisher) as a reference. Data was analyzed using Excel (Microsoft) and FlowJo (Tree Star). […]

human T cells = assay: 5-FOA resistance assay of UMPS targeted vs mock targeted T cells (cell counts after 4 days); assay type: cell-based; conditions: for survival / viability of cells in 5-FOA: mock treated and UMPS targeted T cells grown in 5-FOA for 4 days, UMP or Uridine 250 ug/ml, 5% human serum
Description: as §1, §2
5-FOA selects for uracil auxotrophic cells in other organisms (e.g. Boeke et al. 1984, Mol. Gen. Genet. 197(2):345-6). To investigate the potential utility of 5-FOA for the selection of uracil auxotrophs in human cells, the UMPS gene was targeted in human T cells by Cas9-gRNA complex electroporation followed by recovery (as in Example 2) followed by an assay of resistance to 5-FOA treatment (FIG. 3A). Cells were grown in 5-FOA and a variety of combinations of serum and uracil sources for 4 days before cell counting was performed. […] This is likely through a competition based mechanism (uridine can reverse 5-fluorouracil toxicity in humans (van Groeningen et al. 1992, Semin. Oncol. 19(2 Suppl 3):148-54)) (FIGS. 3B and C).

| SMILES | cell growth of 5-FOA selected UMPS targeted population ([1]; 4 days in uracil containing (UMP, uridine or both) vs uracil deficient media after 4 days of 5-FOA selection) | growth of UMPS edited cells [2] | survival / viability of cells in 5-FOA (human T cells) | toxicity of 5-FOA (human T cells; UMPS targeted vs mock targeted T cells, 4 days of 5-FOA selection, 100 ug/ml to 1 mg/ml) | killing of non-UMPS targeted cells during 5-FOA selection ([1]; mock targeted T cell cultures, growth negligible after selection) |
| --- | --- | --- | --- | --- | --- |
| O=c1cc[nH]c(=O)[nH]1 [uracil] | cell growth was stimulated | – | – | – | – |
| O=c1ccn([C@@H]2O[C@H](COP(=O)(O)O)[C@@H](O)[C@H]2O)c(=O)[nH]1 [UMP] | – | rescue the growth of UMPS edited cells to the same level as mock edited and CCR5 targeted controls | improved the survival of both mock treated and UMPS targeted cells in 5-FOA | – | – |
| O=c1ccn([C@@H]2O[C@H](CO)[C@@H](O)[C@H]2O)c(=O)[nH]1 [uridine] | – | rescue the growth of UMPS edited cells to the same level as mock edited and CCR5 targeted controls | improved the survival of both mock treated and UMPS targeted cells in 5-FOA | – | – |
| O=C(O)c1[nH]c(=O)[nH]c(=O)c1F [5-FOA, 5-fluoroorotic acid] | – | – | – | less toxic in UMPS targeted cell lines | successful killing of non-UMPS targeted cells |
